Test results from patent publication US10857122B2, “Hypoestoxide, derivatives, related compounds, and agonists thereof for treatment or prevention of neurodegenerative diseases” (Immune Modulation, Inc., priority 2015, dated 2020).

Experiments:
α-syn-tg mice [1] = assay: Quantitative gene expression analysis (qPCR) of pro-inflammatory cytokines; assay type: in vivo; details: neocortex of α-syn-tg mice; 5 mg/kg IP daily for four weeks
Procedure: (§1) Five-month-old non-tg and α-syn-tg female mice were injected intra-peritoneally (IP) with either vehicle (40% captisol) or 5 mg/kg of hypoestoxide daily for four weeks. The right hemibrains were post-fixed in phosphate-buffered 4% PFA at 4° C. for neuropathological analysis, while the left hemibrains were snap-frozen and stored at −70° C. for subsequent protein and mRNA analysis.
(§2) Total mRNA was extracted from mice frontal cortex using RNeasy Lipid mini kit (Qiagen, Germantown, Md.) and reverse transcribed using SuperScript VILO cDNA synthesis kit (Life Technologies), respectively. Quantitative real-time PCR was performed using TaqMan® Fast Advanced Master Mix (Life Technologies) according to manufacturer's instructions with gene specific primers obtained from Life Technologies, such as TNFα (Mm00443258_m1), IL6 (Mm00446190_m1), IL-1β (Mm00434228_m1), and β-actin (Mm00607939_s1). Amplification of DNA products was measured by the StepOnePlus real-time PCR system (Applied Biosystems, Carlsbad, Calif.). Relative mRNA levels were calculated according to the 2-exp (ΔΔCt) method. All ΔCT values were normalized to β-actin.
(§3) The levels of pro-inflammatory cytokines were analyzed using immunohistochemical analysis and gene expression analysis. The levels of TNFα, IL-1ß and IL6 were increased in α-syn-tg mice compared to non-tg mice. […] A positive interactive effect of HE treatment on the levels of TNFα (Finteraction (1, 16)=12.34, p=0.0029), IL-1β (Finteraction (1, 16)=11.58, p=0.0036), and IL6 (Finteraction (1, 16)=31.06, p<0.0001) was confirmed by two-way ANOVA. […] A positive interactive effect of HE treatment on the mRNA levels of TNFα (Finteraction (1, 16)=15.78, p=0.0019), IL-1β (Finteraction (1, 16)=11.65, p=0.0051), and IL6 (Finteraction (1, 16)=6.40, p=0.0264) was confirmed by two-way ANOVA.

α-syn-tg mice [2] = assay: Immunohistochemical analysis of brain immune cells (Iba-1 microglia, GFAP astrocytes) in a mouse model of PD; assay type: in vivo; details: 5 mg/kg IP daily for four weeks
Procedure: as §1
(§4) Blind-coded sagittal brain sections were incubated with primary antibodies at 4° C. for overnight. The next day, sections were incubated with either biotinylated- or FITC-conjugated secondary antibodies and detected with avid in D-HRP HRP (ABC elite, Vector Laboratories, Burlingame, Calif.) and with Tyramide Signal Amplification Direct system (PerkinElmer, Waltham, Mass.), respectively.
(§5) To determine the neuroinflammation, neurodegeneration, accumulation of α-synuclein, and NF-κB activation, brain sections were stained with Iba-1, GFAP, TNFα, IL-1β, IL6, human α-synuclein, NF-κB, and phosphorylated-NF-κB antibodies, respectively. Sections were imaged by Olympus BX41 microscope. All immunoreactivity levels were determined by optical density analysis using Image Quant 1.43 program (NIH) except the immunoreactivity of Iba-1. The cell numbers of Iba-1-positive cells were determined per field (230 μm×184 μm) of each animal based on cell body recognition using Image Quant 1.43 program (NIH).
FIGS. 1A-1F show analysis of the numbers of brain immune cells.
A positive interactive effect of HE treatment on Iba-1 optical density (Finteraction (1, 16)=80.48, p<0.0001), numbers of microglia branches (Finteraction (1, 16)=83.25, p<0.0001), GFAP optical density (Finteraction (1, 16)=15.88, p=0.0011), and numbers of astroglial branches (Finteraction (1, 16)=4.04, p=0.0616) was confirmed by two-way ANOVA.

α-syn-tg mice [3] = assay: Neurodegeneration analysis (TH-positive striatal fibers); assay type: in vivo; details: 5 mg/kg IP daily for four weeks
Procedure: as §1, §4
as §5, with “(NIH). […]” for “(NIH).”

α-synuclein [4] = assay: Immunohistochemical and immunofluorescence analysis of α-synuclein accumulation in brain sections; assay type: in vivo, mice; details: 5 mg/kg IP daily for four weeks
Procedure: as §1, §4, §5
To determine whether the behavioral improvements observed in the α-syn-tg mice were related to alterations of α-synuclein pathology, immunohistochemical analysis was performed for α-synuclein with brain sections from non-tg and α-syn-tg mice treated with either vehicle or HE. […]
Immunofluorescence analysis of human α-synuclein in the frontal cortex of non-tg and α-syn-tg mice treated with either vehicle or hypoestoxide was performed. […] Additionally, fluorescence intensity against human α-synuclein was analyzed in frontal cortex of the brains. Immunoreactivity against human α-synuclein was not detected in the frontal cortex of non-tg mice, but it was highly detected in the frontal cortex of α-syn-tg mice. […]

α-syn-tg mice [5] = assay: Immunohistochemical analysis of pro-inflammatory cytokines in a mouse model of PD; assay type: in vivo; details: neocortex of α-syn-tg mice; 5 mg/kg IP daily for four weeks
Procedure: as §1, §4, §5, §3

α-synuclein [6] = assay: Immunoblot analysis of α-synuclein in SDS-soluble and SDS-insoluble brain homogenate fractions; assay type: in vivo; details: brain homogenates of α-syn-tg mice; 5 mg/kg IP daily for four weeks
Procedure: as §1
(§6) Brain homogenates were prepared in the lysis buffer to separate SDS-soluble and SDS-insoluble fractions. Chemiluminescence detection and analysis were performed using Versadoc XL imaging apparatus and Quantity One (Bio-rad, Hercules, Calif.).
FIGS. 3F-3G show the results of a biochemical analysis. Brain homogenates were separated into SDS-soluble and SDS-insoluble factions, and analyzed by immunoblot analysis. The levels of α-synuclein in SDS-soluble fractions from α-syn tg mice were not affected by HE administration. […] A positive interactive effect of HE treatment on the level of SDS-insoluble α-synuclein (Finteraction (1, 16)=8.68, p=0.0095) was confirmed by two-way ANOVA.

NF-κB [7] = assay: Western blot analysis of NF-κB in cytosolic and nuclear fractions of cortex homogenates; assay type: in vivo, mice; details: 5 mg/kg IP daily for four weeks
Procedure: as §1, §6
Biochemical analysis using brain homogenates from the cortex of non-tg and α-syn-tg mice was performed. Brain homogenates were separated into cytosolic and nuclear fractions by centrifugation, and each fraction was analyzed by western blot analysis. Total levels of NF-κB were not altered by HE administration in non-tg and α-syn-tg mice. […] A positive interactive effect of HE treatment on the level of phosphorylated-NF-κB (Finteraction (1, 16)=11.55, p=0.0037) was confirmed by two-way ANOVA.

α-syn-tg mice [8] = assay: Open field and round beam behavioral tests; assay type: in vivo; details: 5 mg/kg IP daily for four weeks
Procedure: as §1
Following treatment, the mice were assessed for gait and coordination using the open field and the round beam tests. Total activity was calculated as total beam breaks in ten minutes. The impairment of gait and balance were assessed by round beam analysis. Three consecutive trials of one minute each were run in one day. The numbers of foot slippages and distance traveled were recorded. The total errors on the beam were calculated as foot slips/distance traveled.
A positive interactive effect of HE treatment on the beam break numbers (Finteraction (1, 16)=15.61, p=0.0011) and total round beam errors (Finteraction (1, 16)=8.58, p=0.0098) was confirmed by two-way ANOVA.

α-synuclein mRNA = α-synuclein mRNA levels; assay type: in vivo, mice; details: model of PD
Procedure: as §1, §2
Intraneuronal accumulations of α-synuclein aggregates are typical pathological features of PD. […]

NF-κB [9] = assay: Immunofluorescence analysis of NF-κB and phosphorylated-NF-κB in neocortex; assay type: in vivo, mice; details: 5 mg/kg IP daily for four weeks
Procedure: as §1, §4
as §5, with “(NIH). […]” for “(NIH).”

[10] = frontal cortex of α-syn-tg mice

## C=C1C(=O)C[C@H]2C[C@@H]3O[C@@]3(C)CC[C@@H]3O[C@@]3(C)C[C@@H](OC(C)=O)[C@H]1C2(C)C [HE, hypoestoxide]
α-syn-tg mice [1]
  mRNA level of IL6: clearly decreased
  mRNA level of IL-1β: clearly decreased
  mRNA level of TNFα: clearly decreased
α-syn-tg mice [2]; neocortex of α-syn-tg mice
  levels of astrogliosis (GFAP): significantly decreased
  numbers of microglial cells (Iba-1-positive): significantly decreased
α-syn-tg mice [2]; α-syn-tg mice
  numbers of branches per glial cell: decreased
α-syn-tg mice [3]
  loss of TH-positive striatal fibers: significantly decreased
α-synuclein [4]; [10]
  immunoreactivity against C-terminus human α-synuclein: significantly decreased
  level of human α-synuclein immunoreactivity (immunofluorescence): significantly decreased
α-synuclein [4]; α-syn-tg mice, frontal cortex, hippocampus, striatum
  levels of α-synuclein in neurons and neuropil (immunohistochemical analysis): significantly decreased
α-syn-tg mice [5]
  level of IL6 (immunohistochemical analysis): significantly reduced
  level of IL-1β (immunohistochemical analysis): significantly reduced
  level of TNFα (immunohistochemical analysis): significantly reduced
α-synuclein [6]
  levels of SDS-insoluble α-synuclein: significantly decreased
  levels of α-synuclein in SDS-soluble fractions: not affected
NF-κB [7]; cortex homogenates of non-tg and α-syn-tg mice
  total levels of NF-κB (western blot): not altered
NF-κB [7]; cortex homogenates of α-syn-tg mice, nuclear fractions
  level of phosphorylated NF-κB (western blot): significantly reduced
α-syn-tg mice [8]
  beam break numbers (open field test): reduced these errors to levels observed in non-tg mice
  total round beam errors: reduced these errors to levels observed in non-tg mice
α-synuclein mRNA
  levels of α-synuclein mRNA: not affected
NF-κB [9]; neocortex of non-tg or α-syn-tg mice
  total levels of NF-κB (immunofluorescence): not changed
NF-κB [9]; neocortex of α-syn-tg mice
  level of phosphorylated-NF-κB (immunofluorescence): significantly decreased
